Laboratory results taken from PMC2266763, “Dimerization of the transmembrane domain of amyloid precursor proteins and familial Alzheimer's disease mutants” (BMC Neuroscience, 2008).
“Also recorded” adds a separate entry of the source. Ends that are not written are not given here. Lys‑tag = not defined here

B1: wild-type APP-TM peptide (peptide)
peptide: GAIIGLMVGGVVIATVIVITLVML-{Lys‑tag}
modifications: not fully specified (N-terminus); reading uncertain
notes: amyloid precursor protein (APP), human, residues 700 to 723, contain the TM segment; Two versions were synthesised: Lys-tag-W-(700-723)-Lys-tag (FRET donor) and Lys-tag-E(EDANS)-(700-723)-Lys-tag (FRET acceptor); also called wild-type APP transmembrane domain peptide; source: synthetic peptide (solid-phase synthesis, purified by reverse phase C4-HPLC); not shown: oligo-lysine tag (Lys-tag), …

What was measured:
[1] = system: APP-TM dimer (self-association); assay: FRET dimer dissociation, APP-TM peptides in SDS micelles; type: binding, human; conditions: for Kd: concentration dependence of FRET (Trp donor / EDANS acceptor, equimolar), 20 mM SDS, 40 mM Tris, 8 mM Acetate (pH 7.0), 0 – 90 μM peptide, overnight, room temperature, average error 3.6%, read-out: Apparent dimer dissociation constant
Description: (§1) Mixed peptide-SDS micelles were prepared by the addition of concentrated SDS to peptide solutions, such that the final concentrations were 20 mM SDS, 40 mM Tris, 8 mM Acetate (pH 7.0) and 0 – 90 μM peptide. The samples were sonicated and incubated overnight in the dark at room temperature before making fluorescence measurements.
(§2) Fluorescence measurements were made at room temperature using a PTI QM-1 fluorescence spectrophotometer. A quartz cuvette with a 2 mm excitation pathlength and a 1 cm emission pathlength was used. The excitation wavelength was 285 nm and the bandpass was 4 nm. We obtained a quantitative measure of the degree of peptide oligomerization by integrating the EDANS emission signal from 472–496 nm and dividing this value with the integrated Trp emission signal from 350–375 nm. This ratio of acceptor fluorescence to donor fluorescence is denoted either as Acceptor/Donor ratio or A/D ratio and can be used to compare peptide oligomerization at varying concentrations.
The apparent dissociation constants were determined using an equation derived from first principles of monomer-dimer equilibrium, where Kd = [A]^2/[A2]. The fluorescence acceptor-donor ratio was plotted against total peptide concentration and fit to the following equation:
[AT]=Kd(Fobs−Fmin/Fmax−Fmin)/2(1−Fobs−Fmin/Fmax−Fmin)^2
Where AT = total APP-TM peptide concentration, F = A/D ratio, fraction dimer = (Fobs-Fmin)/Fmax-Fmin), and % dimer = 100% (fraction dimer). The goodness-of-fit to the model were assessed using the chi-squared test, nonlinear least squares correlation, and examination of residuals.

[2] = system: APP-TM dimer (self-association); assay: SDS-PAGE oligomeric state; type: binding, human; conditions: 20 mM SDS; for Oligomeric state by SDS-PAGE: 40 mM Tris, 8 mM Acetate (pH 7.0), 5% glycerol, 0 – 25 μM peptide, boiled 5 minutes; for Oligomeric state by SDS-PAGE, concentration range: at different concentrations (0 – 25 μM peptide), pH 7.0
Description: Samples contained 20 mM SDS, 40 mM Tris, 8 mM Acetate (pH 7.0), 5% glycerol, and 0 – 25 μM peptide. They were boiled for 5 minutes and subjected to SDS-PAGE using precast 4–12% Nupage gels (Invitrogen) and a standard running buffer. SeeBlue®Plus2 molecular weight markers from Invitrogen were used as standards.

[3] = Solubility of APP-TM peptides; type: physicochemical
wild-type APP-TM peptide [4] = assay: FRET hetero-oligomerization of wild-type and mutant APP-TM peptides; type: binding, human; conditions: Trp-labeled wild-type with EDANS-labeled V717G, constant 1:1 ratio, 20 mM SDS
Description: as §1, §2

Aβ40 and Aβ42 production = assay: Aβ ELISA immunoassay, HEK293 cells expressing Swedish mutant APP and γ-secretase components; type: cell-based, human; conditions: for Effect on levels of Aβ (Aβ40 and Aβ42): overnight incubation, 0, 20 or 100 μM peptide, conditioned media; for Effect on levels of Aβ (Aβ40 and Aβ42) / Effect on Aβ42/40 ratio: relative to control samples
Description: Stably transfected HEK293 cells overexpressing the Swedish double mutant (K670N/M671L) of APP751, presenilin 1, nicastrin, PEN-2 and APH-1 were grown to confluency in DMEM media containing 10% fetal bovine serum. The cells were grown for another 48 hours with the media changed twice at equivalent time intervals. Cells were then incubated overnight in fresh media containing 0, 20 or 100 μM APP-TM peptides. The media was collected and subjected to an immunoassay to determine the Aβ42 and Aβ40 concentrations. The ELISA BioSource immunoassay human β-amyloid 1–40/1–42 colorimetric kit (catalogue number KHB3482/KHB3481) was used and the standard protocol was followed. This sandwich ELISA technique makes use of an immobilized Aβ antibody that binds both Aβ40 and Aβ42 at an N-terminal epitope. The bound Aβ40 and Aβ42 are then detected using a C-terminal antibody specific for either Aβ40 or Aβ42. […] Therefore, this assay is ideally suited to detect any disturbances in the normal processing of endogeneuous full length APP in the presence of APP-TM peptides.

[5] = system: HEK293 cells stably overexpressing Swedish-mutant APP751 and γ-secretase components; assay: Sulforhodamine B (SRB) cytotoxicity assay; type: cell-based; conditions: SRB assay, 0, 10, 20, and 100 μM peptide, overnight
Description: Stably transfected HEK293 cells overexpressing Swedish-mutant APP751 and γ-secretase components were plated at 15,000 cells/well in DMEM media containing 10% fetal bovine serum. The cells were grown for another 48 hours with the media changed twice at equivalent time intervals. Cells were then incubated overnight in fresh media containing 0, 10, 20, and 100 μM APP-TM peptides, and the SRB cytotoxicity assay was performed as previously described.

[6] = system: APP-TM oligomer (self-association); assay: FRET of APP-TM peptides in DOPG phospholipid vesicles; type: binding, human; conditions: 1:20 peptide:DOPG, 50 mM Tris, 10 mM NaCl (pH 7.0), room temperature, excitation 285 nm
Description: DOPG vesicles with incorporated peptides were prepared via sonication of dried lipid films in the presence of peptide solution at a molar ratio of 1 mole of peptide: 20 moles of DOPG as previously described. The samples contained 50 mM Tris, 10 mM NaCl (pH 7.0) as the buffer. […] Purified peptide-incorporated vesicle fractions were used for fluorescence measurements.
as §2

[7] = biological target: T714I APP-TM peptide (human); assay: FRET or BRET; apparent; dimer to monomers; concentration dependence of the A/D ratio in equimolar mixtures of donor- and acceptor-labelled peptide, 20 mM SDS, 40 mM Tris, 8 mM acetate (pH 7.0), 0 – 90 μM peptide, room temperature
[8] = biological target: the molecule itself; assay: as above
[9] = biological target: the molecule itself; assay: SDS-PAGE of the oligomeric state; 20 mM SDS, 40 mM Tris, 8 mM acetate (pH 7.0), 5% glycerol, 0 – 25 μM peptide, boiled 5 minutes, 4–12% Nupage gels
wild-type APP-TM peptide [10] = biological target: B1; assay: FRET or BRET; mixed: Trp-labelled wild-type with equimolar Edans-labelled mutant peptide in 20 mM SDS; A/D ratio against total peptide concentration (V717G) and at 50 μM total peptide (all mutants); baseline A/D 0.24 for non-interacting peptides; conditions: both partners purified
[11] = biological target: V717F APP-TM peptide (human); assay: FRET or BRET; apparent; dimer to monomers; concentration dependence of the A/D ratio in equimolar mixtures of donor- and acceptor-labelled peptide, 20 mM SDS, 40 mM Tris, 8 mM acetate (pH 7.0), 0 – 90 μM peptide, room temperature
[12] = 0, 20 or 100 μM peptide, overnight

Lys-tag(W/EEDANS)GAIIGLMVGGVVIAIVIGITLVML Lys-tag [T714I, FAD mutant T714I APP-TM peptide with N- and C-terminal oligo-lysine tags]
Relative dimer stability ([1]; among wild-type and FAD mutants tested, SDS micelles): least stable dimer
Kd [1]: 395 µM
Oligomeric state by SDS-PAGE [2]: predominantly monomeric
Solubility [3]: only soluble in the presence of SDS

Lys-tag(W/EEDANS)GAIIGLMVGGVVIATVIFITLVML Lys-tag [V717F, FAD mutant V717F APP-TM peptide with N- and C-terminal oligo-lysine tags]
Kd [1]: 125 µM
Oligomeric state by SDS-PAGE [2]: predominantly monomeric
Solubility [3]: only soluble in the presence of SDS

Lys-tag(W/EEDANS)GAIIGLMVGGVVIATVIGITLVML Lys-tag [V717G, FAD mutant V717G APP-TM peptide with N- and C-terminal oligo-lysine tags]
Total peptide concentration at which A/D ratio shows signs of saturation (hetero-oligomerization) (wild-type APP-TM peptide [4]): above 50 μM
Concentration dependence of Aβ reduction (Aβ40 and Aβ42 production; [12]): strong concentration dependence
Inhibitory effect on Aβ42 versus Aβ40 production (Aβ40 and Aβ42 production; [12]): greater inhibitory effect on Aβ42 production (Fig. 7B) than on Aβ40 production
Suppression of Aβ production relative to wild-type peptide (Aβ40 and Aβ42 production; [12]): greater than that of the wild-type peptide; also recorded: significantly greater inhibition of Aβ production than the wild-type peptide
Effect on levels of Aβ (Aβ40 and Aβ42) (Aβ40 and Aβ42 production): drastic reduction in the levels of Aβ relative to control samples
Effect on Aβ42/40 ratio (Aβ40 and Aβ42 production; [12]): reduction in the Aβ42/40 ratio relative to control samples
Cell survival / viability [5]: neither peptide caused a reduction in cell survival
Oligomeric state by SDS-PAGE [2]: populated both monomer and dimer states
Oligomeric state by SDS-PAGE, concentration range [2]: formed monomer-dimer mixtures across the same concentration range

Lys-tag(W/EEDANS)GAIIGLMVGGVVIATVIVITLVML Lys-tag [wild-type, APP-TM peptide, residues 700 to 723 of human APP, with N- and C-terminal oligo-lysine tags; Trp or Glu-EDANS labeled]
Concentration dependence of Aβ reduction (Aβ40 and Aβ42 production; [12]): strong concentration dependence
Inhibitory effect on Aβ42 versus Aβ40 production (Aβ40 and Aβ42 production; [12]): greater inhibitory effect on Aβ42 production (Fig. 7B) than on Aβ40 production
Effect on levels of Aβ (Aβ40 and Aβ42) (Aβ40 and Aβ42 production): drastic reduction in the levels of Aβ relative to control samples
Effect on Aβ42/40 ratio (Aβ40 and Aβ42 production; [12]): reduction in the Aβ42/40 ratio relative to control samples
FRET signature (donor quenching, acceptor sensitization) in phospholipid bilayers [6]: Typical donor quenching and acceptor sensitization was observed
Cell survival / viability [5]: neither peptide caused a reduction in cell survival
Oligomeric state by SDS-PAGE [2]: formed stable dimers
Oligomeric state by SDS-PAGE, concentration range [2]: predominantly dimeric under all concentrations tested

T714I APP-TM peptide
Kd [7]: 395 µM

B1
Kd [8]: 10.3 µM
stoichiometry N [9]: 2

B2: V717F APP-TM peptide (peptide)
peptide: GAIIGLMVGGVVIATVIFITLVML-{Lys‑tag}
modifications: not fully specified (N-terminus); reading uncertain
notes: amyloid precursor protein (APP), human, residues 700 to 723 with the familial Alzheimer's disease mutation V717F; Two versions (Trp donor, Glu-EDANS acceptor) as for m1; Said to be soluble only in the presence of SDS; source: synthetic peptide (solid-phase synthesis, purified by reverse phase C4-HPLC); not shown: oligo-lysine tag (Lys-tag), N-terminal, kept; Trp (donor version) or Glu-EDANS …
binding result (wild-type APP-TM peptide [10]): binds
Kd [11]: 125 µM

B3: V717G APP-TM peptide (peptide)
peptide: GAIIGLMVGGVVIATVIGITLVML-{Lys‑tag}
modifications: not fully specified (N-terminus); reading uncertain
notes: amyloid precursor protein (APP), human, residues 700 to 723 with the familial Alzheimer's disease mutation V717G; Two versions (Trp donor, Glu-EDANS acceptor) as for m1; source: synthetic peptide (solid-phase synthesis, purified by reverse phase C4-HPLC); not shown: oligo-lysine tag (Lys-tag), N-terminal, kept; Trp (donor version) or Glu-EDANS (acceptor version), N-terminal, kept; oligo-lysine …
Kd [8]: 20.4 µM
stoichiometry N [9]: 2
binding result (wild-type APP-TM peptide [10]): binds
